Marks after values point to notes of the source that are not given here.
How the values were obtained:
[1] = system: type 2 diabetic mouse (db/db) model; experiment: Reduction of HbA1c in db/db type 2 diabetic mice after chronic treatment (HbA1c, insulin, triglycerides, food consumption, body weight); assay type: in vivo; settings: for Cumulative Food Consumption Day 0-28 / Insulin / Triglycerides / Δ% HbA1c vs. DC / Body Weight (%) Day 28 vs. Baseline: db/db mice
Procedure: This study was performed in a type 2 diabetic mouse (db/db) model. […] All the treatments were injected subcutaneously every third day for 10 doses (q3d*10). % HbA1c, Insulin, Triglycerides levels were measured on Day 0, day 14 and day 28. Cumulative food intake from day 0-28 and % Change in body weight compared to day 0 was calculated on day 28.

[2] = target: T1, GLP-1R (Homo sapiens, UniProt P43220); experiment: cAMP assay (cAMP Hunter eXpress GPCR Assay) on GLP-1R-expressing cells; assay type: cell-based; settings: read-out: half-maximal effective concentration, cellular cAMP
T1 construct: host or cells: GLP-1R-expressing cells of the cAMP Hunter eXpress GPCR Assay kit
Procedure: (§1) In-vitro potency determination was performed using cAMP assay. G protein coupled receptor (GPCR) activation following ligand binding initiates a series of second messenger cascades that results in a cellular response. Signaling by the GLP-1R and GIP-R involves activation of adenylate cyclase and cAMP production. Cellular cAMP production was determined using the cAMP Hunter™ eXpress GPCR Assay (Eurofins DiscoveRx).

[3] = target: T2, GIPR (Homo sapiens, UniProt P48546); experiment: cAMP assay (cAMP Hunter eXpress GPCR Assay) on GIPR-expressing cells; assay type: cell-based; settings: read-out: half-maximal effective concentration, cellular cAMP
T2 construct: host or cells: GIPR-expressing cells of the cAMP Hunter eXpress GPCR Assay kit
T2 sequence (P48546 22-466): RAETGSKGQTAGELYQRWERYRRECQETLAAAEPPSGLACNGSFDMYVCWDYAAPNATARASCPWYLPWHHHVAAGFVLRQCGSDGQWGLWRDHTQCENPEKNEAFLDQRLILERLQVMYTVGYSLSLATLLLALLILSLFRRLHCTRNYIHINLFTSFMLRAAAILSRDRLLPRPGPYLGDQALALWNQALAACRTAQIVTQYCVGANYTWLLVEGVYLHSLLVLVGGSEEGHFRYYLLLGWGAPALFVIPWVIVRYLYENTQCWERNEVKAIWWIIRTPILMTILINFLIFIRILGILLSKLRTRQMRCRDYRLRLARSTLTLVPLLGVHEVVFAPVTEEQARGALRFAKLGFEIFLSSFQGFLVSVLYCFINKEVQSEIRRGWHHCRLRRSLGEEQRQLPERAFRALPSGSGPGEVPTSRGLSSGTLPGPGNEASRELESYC
Procedure: as §1

[4] = system: type 2 diabetic mouse (db/db) model; experiment: Reduction in blood glucose and effect on body weight and food intake, single dose, db/db mice (Tables 4, 5); assay type: in vivo
Procedure: The effect of Compounds of present invention on blood glucose was studied on mice. This study was performed in a type 2 diabetic mouse (db/db) model. […] Baseline blood glucose was measured from all the animals. All animals were administered with its respective test item subcutaneously. […] Delta blood glucose (mM) was calculated. Similarly body weight changes and cumulative food consumption was measured at 96 hr post treatment.

[5] = system: type 2 diabetic mouse (db/db) model; experiment: Effect of Compound 2 and 7 on blood glucose, body weight and food consumption in mice, up to 72 hr (Tables 6, 7); assay type: in vivo; settings: 10 nM/kg
Procedure: Similarly body weight changes and cumulative food consumption was measured at 72 hr post treatment.

[6] = system: type 2 diabetic mouse (db/db) model; experiment: Effect on blood glucose, food intake and body weight, single s.c. dose 10 nM/kg, db/db mice (Tables 8, 9); assay type: in vivo; settings: 10 nM/kg/s.c/single dose
Procedure: This study was performed in a type 2 diabetic mouse (db/db) model. […] Baseline blood glucose was measured from all the animals. All the animals were administered with test items subcutaneously. Blood glucose was measured at 4 hr, 12 hr, 24 hr, 48 hr, 72 hr and 96 hr post treatment. Delta blood glucose (mM) was calculated. Body weight changes and cumulative food consumption was measured at 96 hr post treatment. Similarly the effect of Compounds 11-15 on blood glucose, food intake and body weight was studied in a separate study except for Compound 13. The results are shown in Table 8 (effect on blood glucose) and Table 9 (effect on body weight and food consumption).

[7] = system: type 2 diabetic mouse (db/db) model; experiment: Reduction of HbA1c in db/db type 2 diabetic mice after chronic treatment (HbA1c, insulin, triglycerides, food consumption, body weight); assay type: in vivo; settings: 9 nM/kg and 18 nM/kg dose
[8] = 6 nM/kg s.c., separate study n = 5

T1 sequence (P43220 24-463): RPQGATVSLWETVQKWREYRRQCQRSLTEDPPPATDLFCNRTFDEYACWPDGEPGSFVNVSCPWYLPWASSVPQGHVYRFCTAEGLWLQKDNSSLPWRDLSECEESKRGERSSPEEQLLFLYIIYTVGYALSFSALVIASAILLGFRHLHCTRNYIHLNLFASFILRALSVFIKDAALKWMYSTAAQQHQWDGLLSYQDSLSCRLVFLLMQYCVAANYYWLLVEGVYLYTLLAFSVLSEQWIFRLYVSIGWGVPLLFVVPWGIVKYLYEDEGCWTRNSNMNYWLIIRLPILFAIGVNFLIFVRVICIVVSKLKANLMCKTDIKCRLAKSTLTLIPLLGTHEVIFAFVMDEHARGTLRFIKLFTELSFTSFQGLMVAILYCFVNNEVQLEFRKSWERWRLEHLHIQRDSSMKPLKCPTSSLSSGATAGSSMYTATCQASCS

## CC[C@H](C)[C@H](NC(=O)[C@H](CC(C)C)NC(=O)[C@H](Cc1c[nH]c2ccccc12)NC(=O)[C@H](CCC(N)=O)NC(=O)[C@@H](NC(=O)[C@H](Cc1ccccc1)NC(=O)[C@H](C)NC(=O)[C@H](CCCCNC(=O)COCCOCCNC(=O)C(C)(C)NC(=O)CC[C@H](NC(=O)CCCCCCCCCCCCCCCCCCC(=O)O)C(=O)O)NC(=O)[C@H](CCC(N)=O)NC(=O)[C@H](C)NC(=O)[C@@H](NC(=O)[C@H](CCCCN)NC(=O)[C@H](CC(=O)O)NC(=O)[C@H](CC(C)C)NC(=O)C(C)(C)NC(=O)[C@@H](NC(=O)[C@H](CO)NC(=O)[C@H](Cc1ccc(O)cc1)NC(=O)[C@H](CC(=O)O)NC(=O)[C@H](CO)NC(=O)[C@@H](NC(=O)[C@H](Cc1ccccc1)NC(=O)[C@@H](NC(=O)CNC(=O)[C@H](CCC(=O)O)NC(=O)C(C)(C)NC(=O)[C@@H](N)Cc1ccc(O)cc1)[C@@H](C)O)[C@@H](C)O)[C@@H](C)CC)[C@@H](C)CC)C(C)C)C(=O)N[C@@H](C)C(=O)NCC(=O)NCC(=O)N1CCC[C@H]1C(=O)N[C@@H](CO)C(=O)N[C@@H](CO)C(=O)NCC(=O)N[C@@H](C)C(=O)N1CCC[C@H]1C(=O)N1CCC[C@H]1C(=O)N1CCC[C@H]1C(=O)N[C@@H](CO)C(N)=O [Compound 2]
[1]; 9 nM/kg, day 14
  insulin levels compared to the diabetic control group (in words): statistically significant increase in insulin levels
[1]; 4.5, 9 and 18 nM/kg
  triglycerides compared to the diabetic control group (in words): statistically significant lowering of triglycerides
[1]; 4.5, 9 and 18 nM/kg, day 14 and 28th day
  change in HbA1c compared to the diabetic control (in words): statistically significant change in HbA1c
[1]; 4.5, 9 and 18 nM/kg, day 28
  body weight compared to the diabetic control group (in words): statistically significant decrease in body weight
[1]; 4.5, 9 and 18 nm/kg, course of the study
  cumulative food consumption compared to the diabetic control group (in words): statistically significant reduction in cumulative food consumption
[1]; 4.5 nM/kg s.c. q3d*10
  Cumulative Food Consumption Day 0-28: 112.4
[1]; 9 nM/kg s.c. q3d*10
  Cumulative Food Consumption Day 0-28: 111.8
[1]; 18 nM/kg s.c. q3d*10
  Cumulative Food Consumption Day 0-28: 89.5
[1]; Day 14, 4.5 nM/kg s.c. q3d*10
  Insulin: 34.75 ng/mL
  Triglycerides: 218.7 mg/dL
  Δ% HbA1c vs. DC: −2.43*** %
[1]; Day 14, 9 nM/kg s.c. q3d*10
  Insulin: 69.63 ng/mL
  Triglycerides: 169.8 mg/dL
  Δ% HbA1c vs. DC: −2.90*** %
[1]; Day 14, 18 nM/kg s.c. q3d*10
  Insulin: 75.09 ng/mL
  Triglycerides: 172.4 mg/dL
  Δ% HbA1c vs. DC: −3.04*** %
[1]; Day 28, 4.5 nM/kg s.c. q3d*10
  Body Weight (%) Day 28 vs. Baseline: −7.0%
  Insulin: 33.44 ng/mL
  Triglycerides: 208.9 mg/dL
  Δ% HbA1c vs. DC: −3.64*** %
[1]; Day 28, 9 nM/kg s.c. q3d*10
  Body Weight (%) Day 28 vs. Baseline: −8.9%
  Insulin: 53.87 ng/mL
  Triglycerides: 147.4 mg/dL
  Δ% HbA1c vs. DC: −4.19*** %
[1]; Day 28, 18 nM/kg s.c. q3d*10
  Body Weight (%) Day 28 vs. Baseline: −9.3%
  Insulin: 76.93 ng/mL
  Triglycerides: 144.3 mg/dL
  Δ% HbA1c vs. DC: −4.25*** %
[2]
  EC50: 4.1 nM
[3]
  EC50: 2.3 nM
[4]; 3 nM/kg s.c., n = 6 study
  Cumulative Food Intake (g) 0-96 hr, Mean: 14.6*** g
  Body Weight Change (%) 96 hr., Mean: −5*** %
[4]; [8]
  Cumulative Food Intake (g) 0-96 hr, Mean: 18.2 g
  Body Weight Change (%) 96 hr., Mean: −0.9%
[4]; 4 hr post treatment, @ 3 nM s.c., n = 6 study
  Delta Blood Glucose (mM), Mean: -12.6 mM
[4]; 4 hr post treatment, @ 6 nM s.c., separate study n = 5
  Delta Blood Glucose (mM), Mean: −14.4*** mM
[4]; 12 hr post treatment, @ 3 nM s.c., n = 6 study
  Delta Blood Glucose (mM), Mean: -10.6 mM
[4]; 12 hr post treatment, @ 6 nM s.c., separate study n = 5
  Delta Blood Glucose (mM), Mean: −18.0*** mM
[4]; 24 hr post treatment, @ 3 nM s.c., n = 6 study
  Delta Blood Glucose (mM), Mean: -8.3 mM
[4]; 24 hr post treatment, @ 6 nM s.c., separate study n = 5
  Delta Blood Glucose (mM), Mean: −16.9*** mM
[4]; 48 hr post treatment, @ 3 nM s.c., n = 6 study
  Delta Blood Glucose (mM), Mean: -7.3 mM
[4]; 48 hr post treatment, @ 6 nM s.c., separate study n = 5
  Delta Blood Glucose (mM), Mean: −8.9*** mM
[4]; 72 hr post treatment, @ 3 nM s.c., n = 6 study
  Delta Blood Glucose (mM), Mean: -4.7 mM
[4]; 72 hr post treatment, @ 6 nM s.c., separate study n = 5
  Delta Blood Glucose (mM), Mean: 0.1 mM
[4]; 96 hr post treatment, @ 3 nM s.c., n = 6 study
  Delta Blood Glucose (mM), Mean: -0.3 mM
[4]; 96 hr post treatment, @ 6 nM s.c., separate study n = 5
  Delta Blood Glucose (mM), Mean: 2.1 mM
[5]
  time for which efficacy on blood glucose was maintained: 72 h
[5]; mice, n = 8
  % Body wt. change 72 hr. vs. 0 hr., Mean: −7.2*** %
  Cumulative Food Consumption (0-72 hr) (g), Mean: 8.4*** g
[5]; 4 hr post treatment, mice, n = 8
  Delta Blood Glucose (mM), Mean: -15.6 mM
[5]; 8 hr post treatment, mice, n = 8
  Delta Blood Glucose (mM), Mean: -16.3 mM
[5]; 12 hr post treatment, mice, n = 8
  Delta Blood Glucose (mM), Mean: -16.0 mM
[5]; 24 hr post treatment, mice, n = 8
  Delta Blood Glucose (mM), Mean: -14.6 mM
[5]; 72 hr post treatment, mice, n = 8
  Delta Blood Glucose (mM), Mean: -4.1 mM
[6]; 0 hr (baseline)
  Delta Blood Glucose (mM), Mean: 0.0 mM
[6]
  Body Wt. Change (%) 96 hr. vs. Baseline, Mean: −4.2*** %
  Cumulative food Intake (g) 96 hr. vs. Baseline, Mean: 12.3*** g
  blood glucose reduction post treatment (in words): statistically significant blood glucose reduction
[6]; 4 hr post treatment
  Delta Blood Glucose (mM), Mean: −13.1*** mM
[6]; 12 hr post treatment
  Delta Blood Glucose (mM), Mean: −11.7*** mM
[6]; 24 hr post treatment
  Delta Blood Glucose (mM), Mean: −8.2*** mM
[6]; 48 hr post treatment
  Delta Blood Glucose (mM), Mean: −6.0** mM
[6]; 72 hr post treatment
  Delta Blood Glucose (mM), Mean: -2.8 mM
[6]; 96 hr post treatment
  Delta Blood Glucose (mM), Mean: 0.6 mM
[7]
  reduction in HbA1c on day 29 more than the reduction on day 14: more than 40%

Reference: patent US20230241178A1, “LONG ACTING GLP-1/GIP DUAL AGONISTS” (SUN PHARMACEUTICAL INDUSTRIES LIMITED, priority 2020, published 2023)
